This assay is described as follows: Inhibition of Phosphodiesterase 5 from human corpus cavernosum.

The source of these data is BindingDB's records for doi:10.1016/0960-894X(96)00323-X (1996).

As to `CCCc1[nH]nc2c(=O)[nH]c(-c3ccccc3O)nc12` [5-(2-Hydroxy-phenyl)-3-propyl-1,6-dihydro-pyrazolo[4,3-d]pyrimidin-7-one], it took 1 µM to reach half-maximal inhibition (IC50). That is a single-digit micromolar value.

Turning to `CCCc1nn(C)c2c(=O)[nH]c(-c3cc(S(=O)(=O)N4CCN(CCO)CC4)ccc3OCC)nc12` [5-{2-Ethoxy-5-[4-(2-hydroxy-ethyl)-piperazine-1-sulfonyl]-phenyl}-1-methyl-3-propyl-1,6-dihydro-pyrazolo[4,3-d]pyrimidin-7-one], the IC50 – broadly, the point on the concentration scale where inhibition reaches its midpoint – amounted to 0.019 µM.

For `CCCc1nn(C)c2c(=O)[nH]c(-c3cc(S(=O)(=O)N4CCN(C(N)=O)CC4)ccc3OCC)nc12` [4-[4-Ethoxy-3-(1-methyl-7-oxo-3-propyl-6,7-dihydro-1H-pyrazolo[4,3-d]pyrimidin-5-yl)-benzenesulfonyl]-piperazine-1-carboxylic acid amide], the midpoint of inhibition, the IC50, lay at 0.0021 µM.

In turn, `CCCc1[nH]nc2c(=O)[nH]c(-c3ccccc3)nc12` [5-Phenyl-3-propyl-1,6-dihydro-pyrazolo[4,3-d]pyrimidin-7-one] displayed an IC50 of 4.5 µM.
